# Values joined by “and” are separate entries in the source; they are usually repeats but may differ in a detail not shown here. Equal values may be shown once. Read-outs that look alike come from different tables or passages of the source.
# How the values were obtained:
# [1] = tested on: dizocilpine-induced learning deficits; assay: Dizocilpine-induced learning deficits, Y-maze spontaneous alternation; type: in vivo, male Swiss mice
# Protocol: The activity of compound 7i was evaluated in regard to its ability to reverse dizocilpine-induced learning deficits. Two behavioral tests were performed by Amylgen (Montferrier-sur-Lez, France) on male Swiss mice (aged 6–9 weeks). All compounds (7i and controls) were intraperitoneally injected.
# Animals were tested for spontaneous alternation performance in the Y-maze, an index of spatial working memory. Made of grey polyvinylchloride, the Y-maze has an arm which is 40 cm long, 13 cm high and 3 cm wide at the bottom and 10 cm wide at the top, converging at an equal angle. Each mouse was placed at the end of one arm and allowed to move freely through the maze during an 8-min session. The series of arm entries, including possible returns into the same arm, were checked visually. An alternation was defined as entries into all three arms on consecutive occasions. The number of maximum alternations was therefore the total number of arm entries minus two, and the percentage of alternation was calculated as: (actual alternations/maximum alternations) × 100. Parameters included the percentage of alternation (memory index) and the total number of arm entries (exploration index). Animals showing extreme behavior (alternation < 20% or >90% or number of arm entries < 10) are usually discarded from the calculations. […] Step-through latency (the latency in time spent to enter the dark compartment) and the number of vocalizations were recorded. […] Step-through latency was recorded up to 300 s. When either the mouse entered the dark compartment or 300 s had elapsed (they were therefore manually placed in it), escape latency (latency to exit from the dark compartment) was recorded with a value of up to 300 s. […]
# [2] = Pharmacokinetic study in plasma and brain; type: in vivo, male C57BL/6 mice; conditions: 1 mg/kg; for Brain/Plasma / Kp at 0.5 h: at 30 min; for Brain AUC t^∞/AUC ∞: unit assumed; for Kp at 0.5 h / Tmax / half-life / concentration at 30 min / bioavailability: male, C57BL/6, mouse
# Protocol: A pharmacokinetic (PK) study was performed by Eurofins Cerep (Poitiers, France) in male C57BL/6 mice (20–30 g) following i.v. and p.o. administrations of compound 7i at 1 mg/kg.
# The plasma and perfused brain samples were collected at 0, 30, 60, 120, 240 and 280 min after treatment administration (n = 3 animal/time point). Animals were terminated under inhalant CO2 euthanasia. Blood was collected via cardiac puncture. Aliquots were collected in tubes coated with lithium heparin and centrifuged. The plasma was harvested and kept frozen at −70 °C until further processing. Immediately following the collection of the blood sample, animals were perfused with heparinized saline (10 IU/mL). The brain was collected, rinsed with saline to remove residual blood, weighed and stored at −70 °C until further analysis.
# Plasma samples were processed using acetonitrile precipitation and analyzed by LC-MS/MS. A plasma calibration curve was generated. Aliquots of drug-free plasma were spiked with compound 7i at the specified concentration levels. The spiked plasma samples were processed together with the unknown plasma samples using the same procedure.
# Each brain was homogenized for 10 s on ice in a proper volume of cold phosphate-buffered saline (PBS) at pH 7.4. The homogenate was centrifuged at 5400× g for 15 min at 4 °C. Supernatants were subsequently processed using acetonitrile precipitation and analyzed by LC-MS/MS. A brain calibration curve was generated. Aliquots of drug-free brain homogenate were spiked with compound 7i at the specified concentration levels. The spiked brain homogenate samples were processed together with the unknown brain homogenate samples using the same procedure.
# Concentrations of compound 7i in the unknown plasma and brain samples were determined using the respective calibration curve. The reportable linear range of the assay was determined, along with the lower limit of quantitation (LLQ).
# The exposure levels of compound 7i in the plasma and brain samples as determined by LC-MS/MS were reported (ng/mL). The [brain]/[plasma] ratios were calculated.
# Pharmacokinetic modeling was performed using the non-compartmental method based on statistical moments. In this method, exchanges between kinetic spaces are expressed in time. The curves were obtained using R software (Package ggplot2, v3.3.6).
# [3] = tested on: experimental autoimmune encephalomyelitis (EAE); assay: Relapsing EAE (PLP 139-151), curative protocol; type: in vivo, female SJL/J mice
# S. typhimurium TA1535 = conditions: 7i 40 µg/plate
smiles,measurement,setting,value
CN(CCCNC(=O)c1ccc(Cl)cc1)Cc1ccccc1 [compound 7i],"dizocilpine-induced learning deficits, Y-maze spontaneous alternation","[1]; 0.5 mg/kg i.p., dizocilpine 0.15 mg/kg",significantly attenuated
same,beneficial effect in Y-maze with NE-100 treatment,[1]; plus NE-100 at 3 mg/kg i.p.,prevented
same,"increase of total clearance, p.o. versus i.v.",[2],20 times
same,C30 after i.v. relative to p.o.,[2]; in the plasma or in the brain,more than 10 times
same,CLT,[2]; i.v.,3.8 mL/min
same,CLbrain,[2]; i.v.,1.8 mL/min
same,D (diffusion in the brain),[2]; i.v.,62% and 61.7%
same,MAT,[2]; i.v.,0 min
same,Plasma AUC t^∞/AUC ∞,[2]; i.v.,0.9
same,Brain/Plasma,[2]; i.v.,2.9
same,Brain AUC t^∞/AUC ∞,"[2]; i.v., brain",5.9%
same,Plasma Cmax (simulated),"[2]; i.v., mouse plasma, simulated",180 ng/mL
same,Kp at 0.5 h,"[2]; brain, iv",3
same,Tmax,"[2]; brain, iv, i.v., brain, read-out: Brain tmax",≤ 30 min
same,half-life,"[2]; brain, iv, read-out: Brain t1/2 el",96.4 min
same,Kp at 0.5 h,"[2]; brain, po",3
same,Tmax,"[2]; brain, po, p.o., brain, read-out: Brain tmax",≤ 30 min
same,half-life,"[2]; brain, po, read-out: Brain t1/2 el",78.9 min
same,concentration at 30 min,"[2]; iv, brain, read-out: Brain C30",234 ng/mL
same,bioavailability,"[2]; plasma, iv",100%
same,concentration at 30 min,"[2]; plasma, iv, read-out: Plasma C30",79.8 ng/mL
same,Tmax,"[2]; plasma, iv, i.v., mouse plasma, read-out: Plasma tmax",0 min
same,half-life,"[2]; plasma, iv, read-out: Plasma t1/2 el",44.5 min
same,bioavailability,"[2]; plasma, po",5%
same,concentration at 30 min,"[2]; plasma, po, read-out: Plasma C30",6.4 ng/mL
same,Tmax,"[2]; plasma, po, p.o., mouse plasma, read-out: Plasma tmax",< 30 min
same,half-life,"[2]; plasma, po, read-out: Plasma t1/2 el",25.5 min
same,concentration at 30 min,"[2]; po, brain, read-out: Brain C30",20.7 ng/mL
same,CLT,[2]; p.o.,74.9 mL/min
same,CLbrain,[2]; p.o.,12.8 mL/min
same,MAT,[2]; p.o.,16.5 min
same,Plasma AUC t^∞/AUC ∞,[2]; p.o.,6.1
same,Vd,[2]; p.o.,0.168 L/kg
same,Brain/Plasma,[2]; p.o.,3.2
same,Brain AUC t^∞/AUC ∞,"[2]; p.o., brain",7.6%
same,EAE global evolution,"[3]; 0.5 mg/kg i.p. daily for 15 days from score 2, followed 80 days",significantly reduced
same,EAE course,[3]; 0.5 mg/kg p.o. daily for 15 days from score 2,significant decrease
same,effect on EAE development after BD-1047 pretreatment,[3]; BD-1047 10 mg/kg i.p. 20 min before 7i,blocked
same,second relapse,"[3]; i.p., 0.5 and 1 mg/kg daily for 15 days",No second relapse
same,effect on clinical score during treatment (first relapse),"[3]; i.p., 0.5 and 1 mg/kg, more pronounced at 1 mg/kg",visible from the first days of treatment
same,maximal clinical grade during the entire disease course,[3]; orally treated animals,≤ 2 grade
same,clinical grade reached during the 15 days of administration,[3]; p.o. 0.5 mg/kg,1 grade
same,rebound effect after end of treatment,"[3]; p.o., as in i.p. administration",No rebound effect
same,Ames TA1535 +S9 (Mean revertants/well per title),"S. typhimurium TA1535; +S9, positive control 2-anthramine 0.5",0.9
same,Ames TA1535 −S9 (Mean revertants/well per title),"S. typhimurium TA1535; −S9, positive control MNNG 0.25",1.3
